In patent US6943172B2, “Rho-kinase inhibitors” (Bayer Pharmaceuticals Corporation, priority 2002, dated 2005) one finds melting point data, which are given here for 1 compound.

In turn, `CCc1cc(Nc2ccc(Sc3ccncc3)cc2)nc(N)n1` [Example 42, N-(2-amino-6-ethyl-4-pyrimidinyl)-N-[4-(4-pyridinylsulfanyl)phenyl]amine] yielded a melting point of 181 to 186 °C.
